Values joined by “and” are separate entries in the source; they are usually repeats but may differ in a detail not shown here. Identical values can stand only once. Toxic doses and inconclusive results are not listed.

The values that follow come from PubChem BioAssay AID328 (DTP/NCI, 2004).

In this experiment the test system is BDF1 mice, P388 leukemia ip, median survival T/C. The experiment can be described thus: NCI In Vivo Anticancer Drug Screen. Data for tumor model P388 Leukemia (intraperitoneal) in B6D2F1 (BDF1) mice. The following applies: endpoint: median survival time, higher = longer survival. In a few lines:
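Compound-treated tumour-bearing mice were compared with vehicle-treated controls. Survival was recorded, and the value is the treated-group measurement divided by the control-group measurement (T/C).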

Setting [1] is: dose: 100.0 mg/kg/injection, schedule: Q01DX009 (ip), vehicle: Klucel (hydroxypropylcellulose) (HPC).
Setting [2] is: dose: 200.0 mg/kg/injection, schedule: Q01DX009 (ip), vehicle: Klucel (hydroxypropylcellulose) (HPC).
The mark [3] stands for this setting: dose: 50.0 mg/kg/injection, schedule: Q01DX009 (ip), vehicle: Klucel (hydroxypropylcellulose) (HPC).
The mark [4] stands for this setting: dose: 50.0 mg/kg/injection, schedule: Q01DX009 (ip), vehicle: saline with Tween-80.
Where [5] appears, read: dose: 50.0 mg/kg/injection, schedule: Q04DX003 (ip), vehicle: Klucel (hydroxypropylcellulose) (HPC).
Setting [6] is: dose: 100.0 mg/kg/injection, schedule: Q01DX009 (ip), vehicle: saline with Tween-80.
Setting [7] is: dose: 100.0 mg/kg/injection, schedule: Q04DX003 (ip), vehicle: Klucel (hydroxypropylcellulose) (HPC).
The mark [8] stands for this setting: dose: 300.0 mg/kg/injection, schedule: Q04DX003 (ip), vehicle: saline with Tween-80.
The mark [9] stands for this setting: dose: 12.5 mg/kg/injection, schedule: Q04DX003 (ip), vehicle: saline with Tween-80.
Where [10] appears, read: dose: 25.0 mg/kg/injection, schedule: Q04DX003 (ip), vehicle: saline with Tween-80.
[11] abbreviates: dose: 50.0 mg/kg/injection, schedule: Q04DX003 (ip), vehicle: saline with Tween-80.
Setting [12] is: dose: 25.0 mg/kg/injection, schedule: Q01DX009 (ip), vehicle: saline with Tween-80.
[13] abbreviates: dose: 100.0 mg/kg/injection, schedule: Q04DX003 (ip), vehicle: saline with Tween-80.
Where [14] appears, read: dose: 200.0 mg/kg/injection, schedule: Q01DX009 (ip), vehicle: saline with Tween-80.
Where [15] appears, read: dose: 200.0 mg/kg/injection, schedule: Q04DX003 (ip), vehicle: saline with Tween-80.
Setting [16] is: dose: 400.0 mg/kg/injection, schedule: Q01DX009 (ip), vehicle: saline with Tween-80.

Take `O=NN(CCCl)C(=O)NCCCl`: the T/C is 111 % of control (dose: 0.5 mg/kg/injection, schedule: Q01DX001 (ip), vehicle: saline); 105 % of control (dose: 1.0 mg/kg/injection, schedule: Q01DX001 (ip), vehicle: saline); 172 % of control and 180 % of control (dose: 2.0 mg/kg/injection, schedule: Q01DX009 (ip), vehicle: other); 255 % of control and 260 % of control (dose: 3.13 mg/kg/injection, schedule: Q01DX010 (ip), vehicle: saline); 195 % of control (dose: 3.2 mg/kg/injection, schedule: Q01DX009 (ip), vehicle: saline + alcohol); 227 % of control and 276 % of control (dose: 4.0 mg/kg/injection, schedule: Q01DX009 (ip), vehicle: other). Moreover, the T/C is, setting by setting: (dose: 4.8 mg/kg/injection, schedule: Q01DX009 (ip), vehicle: saline + alcohol) 275 % of control and 276 % of control; (dose: 5.0 mg/kg/injection, schedule: Q01DX001 (ip), vehicle: saline) 164 % of control; (dose: 6.25 mg/kg/injection, schedule: Q01DX010 (ip), vehicle: saline) 300 % of control; (dose: 6.4 mg/kg/injection, schedule: Q01DX009 (ip), vehicle: saline + alcohol) 319 % of control and 532 % of control; (dose: 7.5 mg/kg/injection, schedule: Q01DX001 (ip), vehicle: saline + alcohol) 157 % of control and 200 % of control; (dose: 7.5 mg/kg/injection, schedule: Q01DX001 (ip), vehicle: saline) 211 % of control. Also, the T/C by setting is: (dose: 8.0 mg/kg/injection, schedule: Q01DX009 (ip), vehicle: other) 270 % of control and 514 % of control; (dose: 10.0 mg/kg/injection, schedule: Q01DX001 (ip), vehicle: saline) 212 % of control; (dose: 12.0 mg/kg/injection, schedule: Q01DX001 (ip), vehicle: Klucel (hydroxypropylcellulose) (HPC)) 119 % of control; (dose: 15.0 mg/kg/injection, schedule: Q01DX001 (ip), vehicle: saline + alcohol) 253 % of control and 176 % of control; (dose: 15.0 mg/kg/injection, schedule: Q01DX001 (ip), vehicle: saline) 159 % of control; (dose: 16.0 mg/kg/injection, schedule: Q01DX001 (ip), vehicle: saline + alcohol) 196 % of control. Further, the T/C is 100 % of control (dose: 16.0 mg/kg/injection, schedule: Q01DX009 (ip), vehicle: other); 238 % of control and 154 % of control (dose: 20.0 mg/kg/injection, schedule: Q01DX001 (ip), vehicle: saline); 229 % of control (dose: 20.0 mg/kg/injection, schedule: Q#XHX024 (ip), vehicle: saline); 175 % of control (dose: 21.6 mg/kg/injection, schedule: Q01DX001 (ip), vehicle: other); 152 % of control (dose: 21.6 mg/kg/injection, schedule: Q01DX001 (ip), vehicle: saline + alcohol); 247 % of control and 564 % of control and 159 % of control (dose: 30.0 mg/kg/injection, schedule: Q01DX001 (ip), vehicle: saline). The T/C runs as follows: (dose: 30.0 mg/kg/injection, schedule: Q#XHX024 (ip), vehicle: saline) 546 % of control; (dose: 32.0 mg/kg/injection, schedule: Q01DX001 (ip), vehicle: saline + alcohol) 225 % of control; (dose: 36.0 mg/kg/injection, schedule: Q01DX001 (ip), vehicle: other) 236 % of control; (dose: 36.0 mg/kg/injection, schedule: Q01DX001 (ip), vehicle: saline + alcohol) 499 % of control; (dose: 40.0 mg/kg/injection, schedule: Q01DX001 (ip), vehicle: saline) 266 % of control; (dose: 60.0 mg/kg/injection, schedule: Q01DX001 (ip), vehicle: saline + alcohol) 88 % of control. Moreover, the T/C (dose: 64.0 mg/kg/injection, schedule: Q01DX001 (ip), vehicle: saline + alcohol) is 281 % of control.
As for `CC(=O)OCCC/C(=C\c1ccc2ccccc2c1)[N+](=O)[O-]`, the T/C was 118 % of control under setting [1] and 122 % of control under setting [2].
In the case of `CSc1nc(N)cc(NC(=O)CCl)n1`, the T/C (dose: 25.0 mg/kg/injection, schedule: Q01DX009 (ip), vehicle: Klucel (hydroxypropylcellulose) (HPC)) was 113 % of control; the T/C under setting [3] was 95 % of control; the T/C under setting [4] is 100 % of control; the T/C under setting [5] was 113 % of control; the T/C under setting [1] was 122 % of control; the T/C under setting [6] was 100 % of control. Further, the T/C under setting [7] is 118 % of control.
For `CCCCCCCN(CCCCCCC)CC(O)c1cc2ccccc2c2cnccc12` (configuration not stated), the T/C (dose: 75.0 mg/kg/injection, schedule: Q04DX003 (ip), vehicle: saline with Tween-80) is 104 % of control; the T/C (dose: 150.0 mg/kg/injection, schedule: Q04DX003 (ip), vehicle: saline with Tween-80) was 113 % of control; the T/C under setting [8] is 95 % of control.
`CCCCCCCCCCCCCCCCCC(=O)NN`: the T/C reads like this: under setting [9], 105 % of control; under setting [10], 98 % of control; under setting [11], 98 % of control.
With `Clc1nc2nsnc2nc1Cl`, the T/C reads like this: (dose: 6.25 mg/kg/injection, schedule: Q04DX003 (ip), vehicle: saline with Tween-80) 101 % of control; (dose: 12.5 mg/kg/injection, schedule: Q01DX009 (ip), vehicle: saline with Tween-80) 104 % of control; under setting [9], 94 % of control and 115 % of control; under setting [12], 98 % of control; under setting [10], 101 % of control and 107 % of control; under setting [4], 107 % of control. Moreover, the T/C under setting [11] was 97 % of control and 107 % of control; the T/C under setting [6] was 122 % of control; the T/C under setting [13] is 105 % of control; the T/C under setting [14] was 118 % of control; the T/C under setting [15] is 110 % of control and 112 % of control; the T/C under setting [8] is 115 % of control. Moreover, the T/C under setting [16] was 105 % of control.
Turning to `COC(=O)CCC(C)C1CCC2C3CCC4CC(SC(=N)N)CCC4(C)C3CC(O)C12C` (configuration not stated), the T/C is 91 % of control under setting [4], 89 % of control under setting [6] and 89 % of control under setting [14].
In the case of `c1ccc2n[se]nc2c1`, the T/C runs as follows: (dose: 1.56 mg/kg/injection, schedule: Q04DX003 (ip), vehicle: saline) 108 % of control; (dose: 3.13 mg/kg/injection, schedule: Q04DX003 (ip), vehicle: saline) 108 % of control and 109 % of control; (dose: 6.25 mg/kg/injection, schedule: Q04DX003 (ip), vehicle: saline) 106 % of control and 109 % of control; (dose: 12.5 mg/kg/injection, schedule: Q04DX003 (ip), vehicle: saline) 104 % of control.
Regarding `COc1ccc(CC(Cc2ccc(OC)c(OC)c2)NC=O)cc1OC`, the T/C under setting [6] is 99 % of control; the T/C under setting [13] was 101 % of control; the T/C under setting [14] is 91 % of control; the T/C under setting [15] is 102 % of control; the T/C under setting [16] was 87 % of control; the T/C (dose: 400.0 mg/kg/injection, schedule: Q04DX003 (ip), vehicle: saline with Tween-80) is 116 % of control.
As to `Oc1c(Cl)cc(Cl)cc1C1Nc2ccccc2-n2cccc21` (configuration not stated), under setting [14], the T/C is 88 % of control.
`CC(=O)Oc1ccc2c(c1)C(=O)C(Br)C1C2CCC2(C)C(OC(C)=O)CCC12` (configuration not stated): the T/C by setting is: (dose: 50.0 mg/kg/injection, schedule: Q01DX010 (sc), vehicle: steriod suspending solution) 95 % of control; (dose: 400.0 mg/kg/injection, schedule: Q01DX010 (sc), vehicle: steriod suspending solution) 90 % of control.
On to `C#CCOC(=O)Nc1ccccc1Cl`, for which the T/C runs as follows: under setting [3], 110 % of control; under setting [5], 100 % of control; under setting [1], 100 % of control; under setting [7], 109 % of control; under setting [2], 100 % of control; (dose: 200.0 mg/kg/injection, schedule: Q04DX003 (ip), vehicle: Klucel (hydroxypropylcellulose) (HPC)) 109 % of control.
For `O=C(NC(=O)c1c(F)cccc1F)Nc1ccc(Cl)c(Cl)c1`, the T/C under setting [12] was 96 % of control, the T/C under setting [4] is 97 % of control and the T/C under setting [6] is 100 % of control.
In the case of `O=S1(=O)CCN(Cc2ccccc2)CC1`, the T/C runs as follows: under setting [3], 96 % of control; under setting [1], 96 % of control; under setting [2], 91 % of control.
